Laboratory results: paper PMC5666006, “Combating virulence of Gram-negative bacilli by OmpA inhibition” (Scientific Reports, 2017)
Where a SMILES comes first, the peptide text is derived from it. [ ]: non-standard residue; d: D form.

What was measured:
E. coli ATCC 25922 [1] = assay: Adhesion of bacteria to A549 cells; assay type: cell-based; settings: 0.25 or 0.5 mg/mL, 2 h
Procedure: (§1) Subsequently, infected A549 cells were washed five times with pre-warmed PBS and lysed with 0.5% Triton X-100. Diluted lysates were plated onto blood agar (Blood-Agar Columbia, Becton Dickinson Microbiology Systems, USA) and incubated at 37 °C for 24 h for enumeration of developed colonies and then the determination of the number of bacteria that attached to A549 cells.

P. aeruginosa PaO1 [2] = assay: Adhesion of bacteria to A549 cells; assay type: cell-based; settings: 0.25 or 0.5 mg/mL, 2 h
Procedure: as §1

A. baumannii ATCC 17978 [3] = assay: Fibronectin-binding assay; assay type: cell-based; settings: A. baumannii ATCC 17978, 0.25 or 0.5 mg/mL, 2 h
Procedure: (§2) Fibronectin-binding assay was performed as described previously. Briefly, A. baumannii ATCC 17978, P. aeruginosa PaO1, and E. coli ATCC 25922 grown overnight at 37 °C in LB were resuspended in PBS and collected by centrifugation at 5,000 × g for 10 min. […] Then, 50 µL of bacterial suspension were mixed with 50 µL of PBS, added to fibronectin coated wells and incubated 2 h at room temperature for bacterial adsorption. Non-adhered bacteria were discarded and wells were washed six times with sterile PBS to remove unbound bacteria. Adherent bacteria were then collected with 125 µL of sterile PBS containing 0.5% Triton X-100. Diluted lysates were plated onto sheep blood agar and incubated at 37 °C for 24 h for enumeration of developed colonies and then the determination of the number of bacteria that attached to fibronectin.

E. coli ATCC 25922 [4] = assay: Fibronectin-binding assay; assay type: cell-based; settings: E. coli ATCC 25922, 0.25 or 0.5 mg/mL, 2 h
Procedure: as §2

P. aeruginosa PaO1 [5] = assay: Fibronectin-binding assay; assay type: cell-based; settings: P. aeruginosa PaO1, 0.25 or 0.5 mg/mL, 2 h
Procedure: as §2

[6] = system: JPAB01: ompA-deficient ATCC 17978 strain; assay: Bacterial cytotoxicity on A549 cells, MTT assay; assay type: cell-based, A. baumannii; settings: JPAB01, 0.5 mg/mL, 48 h
Procedure: Bacterial cytotoxicity. […] Prior the evaluation of bacterial cytotoxicity, we firstly removed viable bacteria from A549 cells cultures and washed A549 cells five times with pre-warmed PBS. Then, cellular viability was assessed as indicated above.
Figure S5. Cell death induced by A. baumannii ATCC 17978 and JPAB01 strains. A549 cells were infected for 48 h with 10^8 CFU/mL of ATCC 17978 and JPAB01 strains treated with AOA-2 (0 or 0.5 mg/mL). Bacterial cytotoxicity was assessed by monitoring the mitochondrial reduction activity using the MTT assay. Representative results of two independent experiments are shown; data are means ± SEM. JPAB01: ompA-deficient ATCC 17978 strain. *P<0.05: between infected and non-infected cells, #P<0.05: between untreated and treated groups. […]

A. baumannii ATCC 17978 [7] = assay: Murine peritoneal sepsis model; assay type: in vivo, mouse
Procedure: (§3) Murine peritoneal sepsis models with A. baumannii ATCC 17978, P. aeruginosa PaO1 or E. coli ATCC 25922 strains were established by i.p. inoculation of the bacteria. Briefly, mice were inoculated with 0.5 mL of the bacterial suspensions, which were incubated for 20–24 h in LB at 37 °C and mixed in a 1:1 ration with a saline solution containing 10% (w/v) porcine mucin (Sigma, Spain).
(§4) The murine peritoneal sepsis models by A. baumannii ATCC 17978, P. aeruginosa PaO1 or E. coli ATCC 25922 strains were established by i.p. inoculation of the bacteria. Briefly, animals were infected i.p. with 0.5 mL of the MLD100 of A. baumannii ATCC 17978, P. aeruginosa PaO1, or E. coli ATCC 25922 strains mixed 1:1 with 10% porcine mucin. […] Fifthy-six mice were randomly ascribed to the following groups: 1). controls (without treatment), and 2). […] Mortality was recorded over 72 h. After death or sacrifice of the mice at the end of the experimental period, aseptic thoracotomies were performed, and blood samples were obtained by cardiac puncture for qualitative blood cultures. The spleen and lungs were aseptically removed and homogenized (Stomacher 80; Tekmar Co., USA) in 2 mL of sterile NaCl 0.9% solution. Ten-fold dilutions of the homogenized spleen and lungs were plated onto Sheep blood agar for quantitative cultures (log CFU/g of spleen or lungs).

E. coli ATCC 25922 [8] = assay: Murine peritoneal sepsis model; assay type: in vivo, mouse
Procedure: as §3, §4

P. aeruginosa PaO1 [9] = assay: Murine peritoneal sepsis model; assay type: in vivo, mouse
Procedure: as §3, §4

[10] = A. baumannii ATCC 17978, 10 mg/kg/d i.p., 72 h
[11] = A. baumannii ATCC 17978 MLD i.p., 10 mg/kg AOA-2 i.p. 2 h after challenge
[12] = E. coli ATCC 25922, 10 mg/kg/d i.p., 72 h
[13] = E. coli ATCC 25922 MLD i.p., 10 mg/kg AOA-2 i.p. 2 h after challenge
[14] = P. aeruginosa PaO1, 10 mg/kg/d i.p., 72 h
[15] = P. aeruginosa PaO1 MLD i.p., 10 mg/kg AOA-2 i.p. 2 h after challenge

Compound: N=C(N)NCCC[C@@H]1NC(=O)[C@H]2CCCN2C(=O)[C@H](Cc2c[nH]c3ccccc23)NC(=O)[C@H](CCCNC(=N)N)NC(=O)[C@H]2CCCN2C(=O)[C@H](Cc2c[nH]c3ccccc23)NC1=O [AOA-2] (cyclo(RW[dP]RW[dP]))
- adherence of E. coli to A549 cells (in words) (E. coli ATCC 25922 [1]): significant reduction in adherence
- adherence of P. aeruginosa to A549 cells (in words) (P. aeruginosa PaO1 [2]): significant reduction in adherence
- bacterial adherence to fibronectin (in words) (A. baumannii ATCC 17978 [3]): significant decrease in the bacterial adherence to fibronectin
- bacterial adherence to fibronectin (in words) (E. coli ATCC 25922 [4]): significant decrease in the bacterial adherence to fibronectin
- bacterial adherence to fibronectin (in words) (P. aeruginosa PaO1 [5]): significant decrease in the bacterial adherence to fibronectin
- A549 cell death induced by ompA-deficient A. baumannii (in words) [6]: no effect on cell death
- mouse mortality (in words) (A. baumannii ATCC 17978 [7]; [10]): decreased
- positive blood cultures (in words) (A. baumannii ATCC 17978 [7]; [10]): decreased
- reduced the bacterial load in the lungs (A. baumannii ATCC 17978 [7]; [11]): 4.34 log CFU/g
- reduced the bacterial load in the spleen (A. baumannii ATCC 17978 [7]; [11]): 4.54 log CFU/g
- mouse mortality (in words) (E. coli ATCC 25922 [8]; [12]): decreased
- positive blood cultures (in words) (E. coli ATCC 25922 [8]; [12]): decreased
- reduced the bacterial load in the lungs (E. coli ATCC 25922 [8]; [13]): 3.47 log CFU/g
- reduced the bacterial load in the spleen (E. coli ATCC 25922 [8]; [13]): 3.36 log CFU/g
- mouse mortality (in words) (P. aeruginosa PaO1 [9]; [14]): decreased
- positive blood cultures (in words) (P. aeruginosa PaO1 [9]; [14]): decreased
- reduced the bacterial load in the lungs (P. aeruginosa PaO1 [9]; [15]): 4.29 log CFU/g
- reduced the bacterial load in the spleen (P. aeruginosa PaO1 [9]; [15]): 4.04 log CFU/g
